According to patent US11389423B2, “Pharmaceutical composition, excipient for the composition and use of the composition” (priority 2018, dated 2022):

Assays:
[1] = test system: male rabbits; test: Electrocardiography; assay type: in vivo, New Zealand rabbits; settings: male rabbits, 17, 51 and 170 mg/kg by gavage, one hour after treatment
Method: (§1) Male New Zealand rabbits (n=6 per group) were used for pharmacological safety tests. All tests were performed orally (route recommended for humans) and the investigated parameters were determined after a single administration of CBD-SINT. CBD-SINT doses were determined by allometric extrapolation from the average dose used in human patients (25 mg/kg).
(§2) The dose of 51 mg/kg was used as the intermediate dose, stipulating a higher and a lower dose. Three dose ranges were used according to the Guide for Conducting Non-Clinical Toxicology and Pharmacological Safety Studies Necessary for Drug Development (ANVISA, 2013; Version 1.2). Thus, the doses used were 17, 51 and 170 mg/kg of CBD-SINT.
a) Electrocardiography, wherein after a 6-h fasting, three doses of CBD (17, 51 and 170 mg/kg) were administered to different groups of male rabbits by gavage. Placebo was administered to the control group (1 mL/kg). One hour after treatments, all rabbits remained conscious in the supine position. Four electrodes (RL, RA, LL, and LA) were placed in the folds of both elbows and both knees. The V1 electrode was positioned in the 4th intercostal space to the right of the sternum. […] An acclimatization time of 5 min was waited, and then the cardiographic electric waves were recorded for 5 min. The electrocardiography was recorded with an ECG recorder (WinCardio, Micromed, Brasilia, Brazil).

[2] = test system: male rabbits; test: Effects on central nervous system, modified Irwin test; assay type: in vivo, New Zealand rabbits; settings: male rabbits, 17, 51 and 170 mg/kg by gavage, single dose
Method: as §1, §2
Effects on the central nervous system were assessed in male rabbits according to the modified Irwin test (Roux et al., 2005).
After 6 h-fasting, three doses of CBD (17, 51 and 170 mg/kg) were administered to different groups of male rabbits by gavage. Placebo was administered to the control group (1 mL/kg). The solid diet was released to the animals 1 hour after the treatments.
The clinical and behavioral effects were assessed at 0-15 min, 15, 30, 60, 120 and 180 min and 24 h after administrations. […]

[3] = test system: Salmonella typhimurium TA100; test: AMES test, strain TA100; assay type: cell-based; settings: TA100, with (+S9) and without (-S9) metabolic activation, 62.5-375 μg/plate
Source text: For the AMES test, the TA 100 and TA 98 strains of Salmonella typhimurium were used. The strain TA 100, which detects mutagens causing base pair replacement in DNA, contains a mutation in the hisG gene (hisG46), which codes for the first histidine biosynthesis enzyme, with the CG pair as the preferred point for reversion. The strain TA 98 has a mutation in the hisD gene to reverse eight repetitive GC residues and detects mutagenic compounds causing the DNA reading frame to shift. According to the methodology of direct incorporation in plates, developed by Maron and Ames (1983), different concentrations of CBD-SINT (375, 250, 125 and 62.5 μg/plate) were mixed with 0.1 mL of the bacteria culture and 2 mL of surface agar (top agar), supplemented with traces of histidine and biotin. For the tests with metabolic activation, 0.5 mL homogenized microsomal fraction S9 of rat liver (post-mitochondrial fraction, supplemented with a cofactor, prepared from the liver of rodents treated with an enzymatic inducing agent, arochloror 1254) (MOLTOX—Molecular Toxicology, USA) were added. As a negative control, double-distilled water (vehicle) was used. As a positive control for TA98, 4-nirophenylenediamine (NPD) dissolved in DMSO was used at a concentration of 10 μg/plate. […] After this period, the number of reversing colonies per plate was counted. […]

[4] = test system: male rabbits; test: Arterial blood gas analysis; assay type: in vivo, New Zealand rabbits; settings: male rabbits, 17, 51 and 170 mg/kg by gavage
Method: as §1, §2
After 6-h fasting, three doses of CBD-SINT (17, 51 and 170 mg/kg) were administered to different groups of male rabbits by gavage. […] The respiratory rate was determined using a Kofranyi-Michaelis respirometer (Murphy, 2002). […] All parameters below were determined on a Cobas b 221 multiparametric blood gas analyzer (Roche Diagnostics, Rotkreuz, Switzerland): pH, PCO2 (mm Hg), PO2 (mm Hg), SO2(%), Htc (%), tHb (g/dL), Na+ (mmol/L), K+ (mmol/L), Ca2+ (mmol/L), Cl− (mmol/L), glucose (mg/dL), lactate (mmol/L), O2Hb (%), HHb (%), P50 (mm Hg), H+ (nmol/L), BE (nmol/L), BEecf (nmol/L), BB (mmol/L), cHCO3 (mmol/L), ctCO2 (B) (mmol/L), ctCO2 (P) (mmol/L) and ctO2 (% by volume).

C=C(C)[C@@H]1CCC(C)=C[C@H]1c1c(O)cc(CCCCC)cc1O [CBD-SINT, Cannabidiol]
PR, QRS or QT segments [1]: no significant changes
amplitudes of P, R or T waves vs placebo [1]: no changes
animals' behavior or physiological status until the end of the 24 h [2]: no significant changes
inactivity or refusal to consume food or water during the observation period (24 h) [2]: none of the experimental animals was inactive or refused to consume food or water
frequency of reversible mutants with the increase in concentration [3]: no increase
mutagenicity ratios (MR) [3]: less than 2
arterial blood gases, electrolytes and metabolites (pH, PCO2, PO2, SO2, Htc, tHb, Na+, K+, Ca2+, Cl-, glucose, lactate, O2Hb, HHb, P50, H+, BE, BEecf, BB, cHCO3, ctCO2, ctO2) vs placebo [4]: none of the CBD-SINT doses changed
